Experimental data published in patent US5459256A, “Lipophilic, aminohydrolase-activated prodrugs” (priority 1991, dated 1995).

How the values were obtained:
[1] = biological target: T1, adenosine deaminase (adenosine aminohydrolase, EC 3.5.4.4) (Bos taurus, UniProt P56658); test: Enzymatic deamination by adenosine deaminase (HPLC)
T1 sequence (P56658 1-363): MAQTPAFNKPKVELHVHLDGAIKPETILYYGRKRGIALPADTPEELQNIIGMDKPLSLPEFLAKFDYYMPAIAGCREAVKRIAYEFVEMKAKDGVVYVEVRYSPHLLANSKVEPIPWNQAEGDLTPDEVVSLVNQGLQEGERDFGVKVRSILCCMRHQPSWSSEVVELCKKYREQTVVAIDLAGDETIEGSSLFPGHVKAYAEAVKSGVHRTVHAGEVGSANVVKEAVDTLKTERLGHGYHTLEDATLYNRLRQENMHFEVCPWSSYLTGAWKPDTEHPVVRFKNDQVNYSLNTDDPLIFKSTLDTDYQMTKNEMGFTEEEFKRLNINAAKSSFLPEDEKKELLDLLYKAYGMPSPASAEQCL
Description: FIG. 1. Deamination of dideoxyadenosine analogues by adenosine deaminase. Hydrolysis kinetics and 2'-F-dd-ara-I formation during the incubation of 50 μM N^6 -CH3 -2'-F-dd-ara-A (1f) with 0.7 units/mL of adenosine deaminase at 37° C. A unit of adenosine deaminase is the amount of enzyme which hydrolyzes a standard substrate (e.g., adenosine) at the rate of 1.0 μmole/min at 25° C. and pH 7.5. […] Insert: Adenosine deaminase hydrolysis kinetics for 50 μM ddA and 2'-F-dd-ara-A. The hydrolysis curve for ddA has been extrapolated from kinetics obtained with 0.07 units/mL of adenosine deaminase under identical conditions.
A 50 μl aliquot of a 10 mg/ml suspension of adenosine deaminase (adenosine aminohydrolase, EC 3.5.4.4) from calf intestinal mucosa was centrifuged at 600×g for 3 min. The residue remaining after removal of the (NH4)2 SO4 supernatant was dissolved in 0.5 ml pH 7.4 tris(hydroxymethyl)-aminomethane (Tris) buffer to give an enzyme solution of 1 mg/ml (274 units/ml). […] A pH 7.4 buffer was prepared by adjusting 0.01M Tris to pH 7.4 with 0.5N HCl, The 1.0 HCl , HPLC-grade acetonitrile, monobasic potassium phosphate, sodium hydroxide and ultrapure Tris were all commercially available and were used without further purification.
Enzymatic Deamination of Adenosine Analogues. […] A 50 μL aliquot of substrate solution was diluted with 0.95 ml 0.01M Tris buffer in a 1.5-mL Eppendorf tube and equilibrated at 37° C. in a Dubnoff metabolic shaking incubator. Reaction was initiated by addition of 2.5 μL of adenosine deaminase solution (0.7 unit). At specified time intervals, a 50 μL aliquot of the reaction mixture was withdrawn and quenched by mixing with 0.45 mL cold 2 μM 2'-deoxycoformycin. This diluted sample was ultrafiltered to remove enzyme in a Centrifree Micropartition unit by centrifugation at 600×g at 4° C. in a high speed refrigerated centrifuge. The decrease in substrate concentration was monitored by HPLC analysis of the resultant ultrafiltrate (see below). The ability of 2'-deoxycoformycin to inhibit deamination under the above conditions was evaluated by adding 2 μL of 1.0 mM inhibitor to diluted substrate solutions at the time of equilibration. Reaction, sampling and analysis were carried out as above. […] Initial hydrolysis rates for each substrate concentration were measured through linear least-squares curve fitting of the concentration versus time data for reaction of the first 10% of substrate. KM and vmax values for each substrate were then determined from a graphical lineweaver-Burke plot of these initial rates (FIG. 1).
HPLC Analysis of Dideoxypurine Nucleosides.
Concentrations of dideoxynucleosides were measured by the HPLC analysis of 100 μL aliquots of ultrafiltered samples. A 4.6×250 mm 5-μm Ultrasphere-ODS column, protected by a Waters guard column packed with 37-50 μm Vydac 201SC, was eluted with 10-20% CH3 CN in 0.01M pH 7.0 phosphate buffer at a flow rate of 1.0 mL/min. Dideoxynucleosides and deamination products were detected at the appropriate wavelength of maximum absorption with a Gilson 116 variable wavelength detector. Peak identity was determined from coincidence of retention times with standards and by comparison of on-the-fly UV spectra obtained with a Perkin-Elmer LC-235 diode array detector. Peak areas and peak heights were measured simultaneously on a Spectra-Physics SP4200 computing integrator.

physchem = details: octanol/ph 7.0 buffer, pH 7, Log P
Description: Measurement of Octanol-Water Partition Coefficients.
n-Octanol-water partition coefficients (P) were determined by a microscale shake-flask procedure, (Ford, H. et al Abstracts of Papers, 200th National Meeting of the American Chemical Society, Washington, D.C.; American Chemical Society: Washington, D.C., 1990; CARB 13) which was modification of an earlier method (Nahum, A. & Horvath, C. J. Chromatogr. 1980, 192, 315). A 20 μL aliquot of a 0.5 mg/mL DMSO solution of the dideoxynucleoside was dissolved in 1.0 mL of octanol-saturated, pH 7.0, 0.01M potassium phosphate buffer. This was mixed thoroughly with 1.0 ml of buffer-saturated n-octanol in a 2-mL Mixxor apparatus at 24°-26° C. and then allowed to stand for 15 min. The phases were separated, centrifuged at 600×g for 5 min, and the relative concentration of sample in each phase determined by HPLC analysis of a 50 μl aliquot. The partition coefficient was calculated by dividing the absolute area of the appropriate integrated peak from the octanol phase by that of the buffer phase (Table I).
Octanol/pH 7.0 buffer partition coefficients were determined using a newly developed microscale method. […] The addition of a methyl group normally increases the log P value of a compound by about 0.5.

CD4^+ ATH8 cells = test: Toxicity on ATH8 target cells (% toxicity, dye exclusion); type: cell-based; details: human
Description: (§1) HIV Cytopathic Effect Inhibition Assay.
(§2) The HIV cytopathic effect inhibition assay was performed as previously described. […] On day 8 in culture, the viable cells were counted by using the dye exclusion method. All compounds, including inactives, were evaluated a minimum of two times in separate experiments. Data reported in Table II are from representative tests. The % protection against the virus was determined by the following formula: 100 times [(the number of viable cells exposed to HIV-1 and cultured in the presence of the compound minus the number of viable cells exposed to HIV-1 and cultured in the absence of compound) divided by (the number of viable cells cultured alone minus the number of viable cells exposed to HIV-1 and cultured in the absence of the compound)]. The % toxicity of a compound on the target cells was determined by the following formula: 100 times [1 minus (the number of total viable cells cultured in the presence of the compound divided by the number of total viable cells cultured alone)]. Calculated percentages equal to or less than zero are expressed as 0%.

[2] = as above; type: cell-based; details: human, ath8 cells, % Toxicity
Description: as §1, §2

HIV = details: cited from earlier work

For `CNc1ncnc2c1ncn2[C@@H]1O[C@H](CO)C[C@@H]1F` [Compound 1f, N^6 -Methyl-9-(2'3'-dideoxy-2'-fluoro-β-D-arabinofuranosyl)adenine], the “Measured Relative Rate” value ([1]; 50 μM substrate, pH 7.4 and 37° C., ddA = 100) was 0.04, the “deamination product / product formation (in words)” value ([1]; 0.7 U/mL ADA, 37° C.) was “the corresponding inosine analogue, 1b, was the product formed” and the half-life at 50 µM ([1]; bovine, adenosine deaminase) was 3 h. The vmax ([1]; pH 7.4 and 37° C.) was 5.5 × 10^-4 μmol/min/U, the “hydrolysis rate, times slower than 1a” value ([1]; vs 1a, 0.7 U/mL ADA, 37° C.) was 135 times slower and the “binding to ADA, times tighter than 1i” value ([1]; vs 1i) was “about 70 times tighter”. The “vmax, times slower than 1i” value ([1]; vs 1i) was 50 times slower, the “hydrolysis by ADA, times slower than ddA” value ([1]; vs ddA, 50 μM substrate) was about 2500 times slower and the logD (physchem) was 0.27 ± 0.01. For the same compound, the “% Toxicity” value (CD4^+ ATH8 cells; 11520 min) was 11%, the “% Toxicity” value (CD4^+ ATH8 cells; ath8 cells, 192 h, 5 µM) was 3% and the “% Toxicity” value (CD4^+ ATH8 cells; ath8 cells, 192 h, 10 µM) was 7%. The cytotoxicity at 192 h, 20 µM [2] was 0% and the “activity against HIV in peripheral blood mononuclear cells (in words)” value (HIV) was “the activity of 1f against HIV in peripheral blood mononuclear cells was recently reported”.
